Assay results taken from publication PMC7756582, “Prodrugs of γ‐Alkyl‐Modified Nucleoside Triphosphates: Improved Inhibition of HIV Reverse Transcriptase” (Angewandte Chemie (International Ed. in English), 2020).

Molecular target: T1, human DNA polymerase α (Homo sapiens, UniProt P09884)
T1 construct: purchased Chimerx
T1 sequence (P09884 1-1462): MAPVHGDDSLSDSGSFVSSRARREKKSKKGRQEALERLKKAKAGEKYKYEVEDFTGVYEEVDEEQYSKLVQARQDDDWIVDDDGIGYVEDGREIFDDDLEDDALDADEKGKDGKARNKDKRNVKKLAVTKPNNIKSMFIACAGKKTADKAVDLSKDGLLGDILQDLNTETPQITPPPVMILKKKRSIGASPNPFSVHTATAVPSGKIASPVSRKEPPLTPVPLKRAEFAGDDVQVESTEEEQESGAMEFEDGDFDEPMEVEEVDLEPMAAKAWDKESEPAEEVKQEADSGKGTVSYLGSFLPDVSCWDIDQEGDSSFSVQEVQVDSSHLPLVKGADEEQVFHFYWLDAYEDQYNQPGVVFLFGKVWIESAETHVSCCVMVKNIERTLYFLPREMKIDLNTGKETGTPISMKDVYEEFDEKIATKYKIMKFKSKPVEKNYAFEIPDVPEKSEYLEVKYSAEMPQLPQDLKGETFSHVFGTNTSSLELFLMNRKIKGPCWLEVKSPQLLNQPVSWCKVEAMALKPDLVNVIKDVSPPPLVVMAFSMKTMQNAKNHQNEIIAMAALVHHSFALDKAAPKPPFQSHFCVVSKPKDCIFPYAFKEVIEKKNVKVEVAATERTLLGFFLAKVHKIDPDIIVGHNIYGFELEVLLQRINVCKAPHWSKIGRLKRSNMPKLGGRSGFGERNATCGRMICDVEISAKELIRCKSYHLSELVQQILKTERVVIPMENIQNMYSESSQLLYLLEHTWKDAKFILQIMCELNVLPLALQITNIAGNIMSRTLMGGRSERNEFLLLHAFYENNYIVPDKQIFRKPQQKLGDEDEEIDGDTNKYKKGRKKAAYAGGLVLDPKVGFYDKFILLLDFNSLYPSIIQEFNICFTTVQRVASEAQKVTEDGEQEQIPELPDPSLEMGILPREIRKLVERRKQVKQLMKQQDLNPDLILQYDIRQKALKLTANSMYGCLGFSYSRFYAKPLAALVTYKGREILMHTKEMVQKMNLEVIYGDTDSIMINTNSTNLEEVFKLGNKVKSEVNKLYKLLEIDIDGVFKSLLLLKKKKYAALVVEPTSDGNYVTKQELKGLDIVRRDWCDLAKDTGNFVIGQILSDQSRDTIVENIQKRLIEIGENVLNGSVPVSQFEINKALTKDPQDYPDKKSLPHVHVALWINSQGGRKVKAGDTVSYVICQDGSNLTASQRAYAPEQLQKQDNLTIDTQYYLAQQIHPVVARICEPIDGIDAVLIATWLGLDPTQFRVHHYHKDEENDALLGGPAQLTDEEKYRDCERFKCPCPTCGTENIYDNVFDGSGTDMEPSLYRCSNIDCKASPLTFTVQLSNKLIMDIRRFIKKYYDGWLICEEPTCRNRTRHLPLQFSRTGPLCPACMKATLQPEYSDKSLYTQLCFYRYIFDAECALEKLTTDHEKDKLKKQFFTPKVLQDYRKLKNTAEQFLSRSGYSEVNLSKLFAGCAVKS
Assay: Primer extension assay with human DNA polymerase α
Format: biochemical
Details: dNTPs 250 μM, Pol α 4 U, 60 min
Experimental: Two different set‐ups have been used. First, a mixture of dATP, dCTP, dGTP, and γ‐alkyl‐TTP (N*) or ‐d4TTP (T*) was used as a mixture. The results obtained from these experiments were compared to those in which just γ‐alkyl‐TTP (N) or d4TTP (T) was used. In each experiment a primer extension without added polymerase (negative control, ‐ lane) and an experiment in which all four canonical NTPs were added (positive control, +lane) were used as controls.
Anti-HIV activity assay: Inhibition of HIV-1(IIIB)- and HIV-2(ROD)-induced cytopathicity in wild-type CEM/0 and thymidine kinase-deficient CEM/TK- cell cultures was measured in microtiter 96-well plates containing ~3·105 CEM cells/mL infected with 100 CCID50 of HIV per milliliter and containing appropriate dilutions of the test compounds. After 4−5 days of incubation at 37 °C in a CO2-controlled humidified atmosphere, CEM giant (syncytium) cell formation was examined microscopically. The EC50 (50% effective concentration) was defined as the compound concentration required to inhibit HIV-induced giant cell formation by 50%. […]
2) For HIV- RT assay: The final assay solution (10 µL) consists of 50 mM Tris-HCl (pH 8.6 at 22 °C), 10 mM MgCl2, 40mM KCl, dNTPs 66 µM, HIV RT 6 U, Hybrid 0.32 µM in a reaction volume of 10 µL, incubated 37 °C for 15 min, 80 °C for 3 min; 50 mA, 45w for 4 h. […] The result was visualized by fluorescence imaging. […]

Cc1cn(C2C=CC(COP(=O)(O)OP(=O)(O)OP(=O)(O)O)O2)c(=O)[nH]c1=O (stereo not shown) [2 t, d4TTP, reference compound]
primer extension by DNA polymerase α (substrate properties): substrate
